# From paper PMC9950205, “Efficacy, safety, and pharmacokinetics of teduglutide in adult Japanese patients with short bowel syndrome and intestinal failure: two phase III studies with an extension” (Surgery Today, 2022)
# Tested on: adult Japanese patients with SBS-IF
# Test: Urine output, change from baseline
# Type: in vivo, human
# Conditions: for 48 h urine output increase from baseline / 48 h urine output percent increase from baseline: 24 weeks
# Protocol: As in the previous STEPS-1 study, patients participating in the core studies (TED-C14-004 and SHP633-306) underwent an optimization (2–8 weeks) and stabilization (4–8 weeks) period before initiation of treatment with teduglutide, during which PS was adjusted with the goal of achieving a stable target urine output of 1.0–2.0 L/day. All participating patients received teduglutide 0.05 mg/kg SC once daily throughout these three studies. PS was adjusted according to an algorithm based on the change from baseline in urine output and other assessments of fluid balance and nutrition status; the PS adjustment algorithm required reductions in PS if the urine output rose more than 10% above baseline. Patients had study visits at weeks 2 and 4, after which visits were held monthly during TED-C14-004 and SHP633-306. During SHP633-307, patients from SHP633-306 had monthly study visits throughout the 24 total months of treatment and then at 3-month intervals thereafter, and patients from TED-C14-004 had visits at 3-month intervals. The end-of-study assessments for SHP633-306 and TED-C14-004 were combined with the first visit of SHP633-307. SHP633-307 is ending soon with the approval of teduglutide in Japan.
# [1] = 30 months, TED-C14-004, n = 7, mean ± SD
# [2] = after 6 months, patients who advanced to SHP633-307 from SHP633-306, n = 4, mean ± SD
# [3] = last visit before interim data cut-off of SHP633-307, patients from TED-C14-004, n = 7, mean ± SD
structure (smiles),measurement,setting,value
CC[C@H](C)[C@H](NC(=O)[C@H](Cc1ccccc1)NC(=O)[C@H](CC(=O)O)NC(=O)[C@H](CCCNC(=N)N)NC(=O)[C@H](C)NC(=O)[C@H](C)NC(=O)[C@H](CC(C)C)NC(=O)[C@H](CC(N)=O)NC(=O)[C@H](CC(=O)O)NC(=O)[C@H](CC(C)C)NC(=O)[C@@H](NC(=O)[C@@H](NC(=O)[C@H](CC(N)=O)NC(=O)[C@H](CCSC)NC(=O)[C@H](CCC(=O)O)NC(=O)[C@H](CC(=O)O)NC(=O)[C@H](CO)NC(=O)[C@H](Cc1ccccc1)NC(=O)[C@H](CO)NC(=O)CNC(=O)[C@H](CC(=O)O)NC(=O)CNC(=O)[C@@H](N)Cc1c[nH]cn1)[C@@H](C)O)[C@@H](C)CC)C(=O)N[C@@H](CC(N)=O)C(=O)N[C@@H](Cc1c[nH]c2ccccc12)C(=O)N[C@@H](CC(C)C)C(=O)N[C@H](C(=O)N[C@@H](CCC(N)=O)C(=O)N[C@H](C(=O)N[C@@H](CCCCN)C(=O)N[C@H](C(=O)N[C@H](C(=O)N[C@@H](CC(=O)O)C(=O)O)[C@@H](C)O)[C@@H](C)CC)[C@@H](C)O)[C@@H](C)CC [teduglutide],48 h urine output increase from baseline,"SHP633-306, n = 6, mean ± SD",212.5 ± 265.9 mL/day
same,48 h urine output percent increase from baseline,"SHP633-306, n = 6, mean ± SD",18.0% ± 23.9%
same,48 h urine output increase from baseline,"TED-C14-004, n = 9, mean ± SD",226.7 ± 555.1 mL/day
same,48 h urine output percent increase from baseline,"TED-C14-004, n = 9, mean ± SD",9.3% ± 22.4%
same,Urine output increase from baseline,[1],306.0 ± 735.0 mL/day
same,Urine output percent increase from baseline,[1],11.2% ± 24.6%
same,Urine output increase from baseline,[2],345.0 ± 217.8 mL/day
same,Urine output percent increase from baseline,[2],29.0 ± 21.6%
same,Mean urine output,[3],1388.2 ± 507.8 mL/day
same,Urine output percent change from baseline,[3],−2.0% ± 35.3%
